According to article PMC5403251 (Neuropharmacology, 2016):

Experiments:
5-HT2A [1] = settings: in humans; ref Almaula et al., 1996; Pigott et al., 2012; Canal et al., 2013; cited from earlier work
C57BL/6J mice = assay: Discrete-trials temporal discrimination task; format: in vivo, mouse
5-HT2A [2] = settings: in mice; ref Canal et al., 2013; cited from earlier work
5-HT2A [3] = settings: ref Kehne et al., 1996; cited from earlier work
[4] = DOI 0.3 mg/kg IP, 10 min before session
[5] = DOI 1 mg/kg IP, 10 min before session
[6] = DOI 3 mg/kg IP, 10 min before session, dose-response experiment
[7] = M100907 blockade experiment: vehicle pretreatment, DOI 3 mg/kg IP
[8] = SB-242,084 blockade experiment: vehicle pretreatment, DOI 3 mg/kg IP
[9] = M100907 0.03 mg/kg SC, 10 min before session
[10] = M100907 0.1 mg/kg SC, 10 min before session
[11] = M100907 0.3 mg/kg SC, 10 min before session

COc1cc(CC(C)N)c(OC)cc1I.Cl (stereo not drawn) [DOI, 1-(2,5-dimethoxy-4-iodophenyl)-2-aminopropane hydrochloride]
Selectivity for 5-HT2A (5-HT2A [1]): ~ 5 fold | Difference limen (C57BL/6J mice; [4]): 1.20 ± 0.12 s | Slope (ε) (C57BL/6J mice; [4]): 1.009±0.108 | T50 (C57BL/6J mice; [4]): 6.36 ± 0.17 s | Trials completed (C57BL/6J mice; [4]): 188.3±2.7 | Weber fraction (C57BL/6J mice; DOI 0.3 mg/kg IP, 10 min before session, mean±SEM): 0.192±0.022 | Difference limen (C57BL/6J mice; [5]): 1.29 ± 0.14 s | Slope (ε) (C57BL/6J mice; [5]): 0.968±0.133 | T50 (C57BL/6J mice; [5]): 6.43 ± 0.13 s | Trials completed (C57BL/6J mice; [5]): 174.6±5.4 | Weber fraction (C57BL/6J mice; [5]): 0.200±0.021 | Difference limen (C57BL/6J mice; [6]): 1.89 ± 0.14 s | Slope (ε) (C57BL/6J mice; [6]): 0.608±0.044 | T50 (C57BL/6J mice; [6]): 7.08 ± 0.41 s | Weber fraction (C57BL/6J mice; [6]): 0.275±0.030 | %B responding (proportional choice of lever B) (C57BL/6J mice; DOI 3 mg/kg IP, 6.1, 7.8, 8.7 and 10.5 s after trial onset, dose-response experiment): significant reductions in %B responding | %B responding (proportional choice of lever B) (C57BL/6J mice; DOI 3 mg/kg IP, 6.9, 7.8, 9.6 and 10.5 s trials, M100907 blockade experiment): reduced %B responding | Difference limen (C57BL/6J mice; [7]): 1.71 ± 0.14 s | Slope (ε) (C57BL/6J mice; [7]): 0.661±0.044 | T50 (C57BL/6J mice; [7]): 7.35 ± 0.20 s | Trials completed (C57BL/6J mice; [7]): 148.3±8.8 | Weber fraction (C57BL/6J mice; [7]): 0.233±0.018 | Difference limen (C57BL/6J mice; [8]): 1.74 ± 0.16 s | Slope (ε) (C57BL/6J mice; [8]): 0.713±0.101 | T50 (C57BL/6J mice; [8]): 6.89 ± 0.31 s | Trials completed (C57BL/6J mice; [8]): 142.5±8.8 | Weber fraction (C57BL/6J mice; [8]): 0.255±0.026 | Correct responding during the 10.5 s-trials (C57BL/6J mice; after drug treatment that reduced %B responding at long stimulus intervals): more than 80% | Selectivity for 5-HT2A vs. 5-HT2C receptors (5-HT2A [2]): 12 fold

COc1cccc([C@H](O)C2CCN(CCc3ccc(F)cc3)CC2)c1OC [M100907, (R)-(+)-α-(2,3-dimethoxyphenyl)-1-[2-(4-fluorophenyl)ethyl]-4-piperidinemethanol]
Effect of pretreatment on the T50 increase produced by DOI (C57BL/6J mice; M100907 0.03 mg/kg SC pretreatment, DOI 3 mg/kg IP): failed to completely block the T50 increase produced by DOI | Effect of pretreatment on the response to DOI (%B responding) (C57BL/6J mice; M100907 0.03 mg/kg SC pretreatment, DOI 3 mg/kg IP, 6.9 and 10.5 s stimuli): blocked the effect of DOI on %B responding | Difference limen (C57BL/6J mice; [9]): 1.31 ± 0.25 s | Slope (ε) (C57BL/6J mice; [9]): 0.997±0.114 | T50 (C57BL/6J mice; [9]): 6.42 ± 0.23 s | Trials completed (C57BL/6J mice; [9]): 163.6±6.5 | Weber fraction (C57BL/6J mice; M100907 0.03 mg/kg SC, 10 min before session, mean±SEM): 0.214±0.051 | Difference limen (C57BL/6J mice; [10]): 1.48 ± 0.15 s | Slope (ε) (C57BL/6J mice; [10]): 0.791±0.070 | T50 (C57BL/6J mice; [10]): 6.80 ± 0.37 s | Trials completed (C57BL/6J mice; [10]): 155.4±7.4 | Weber fraction (C57BL/6J mice; M100907 0.1 mg/kg SC, 10 min before session, mean±SEM): 0.220±0.021 | Difference limen (C57BL/6J mice; [11]): 1.60 ± 0.20 s | Slope (ε) (C57BL/6J mice; [11]): 0.857±0.184 | T50 (C57BL/6J mice; M100907 0.3 mg/kg SC, 10 min before session, 0.3 mg/kg): 7.71 ± 0.45 s | Weber fraction (C57BL/6J mice; M100907 0.3 mg/kg SC, 10 min before session, mean±SEM): 0.206±0.021 | Selectivity for 5-HT2A vs. 5-HT2C receptors (5-HT2A [2]): 165 fold | Affinity for 5-HT2A (5-HT2A [3]): subnanomolar | Fold lower affinity for 5-HT2C and α1 receptors than for 5-HT2A (5-HT2A [3]): at least 100 fold
